Columns and labels:
[1] = Absorption maximum (λ max) in H2O; assay type: physicochemical
[2] = Dye solubility in water at 20° C., determined spectroscopically; assay type: physicochemical; details: heated at 50° C. 1 hour, cooled to 20° C., filtered
Description: The solubilities of the dyes according to the invention were determined as follows:
An excess of dye was heated at 50° C. in water with stirring for one hour. The mixture was then cooled down to 20° C. and filtered, and the dye content of the clear solution was determined spectroscopically.

Structure (SMILES)	λ max (nm) in H2O [1]	Solubility (in g per 100 ml) [2]
O=S(=O)(O)CCCSc1nc(Nc2ccc(S(=O)(=O)O)c3cc(S(=O)(=O)O)c(N=Nc4ccc5c(S(=O)(=O)O)cccc5c4S(=O)(=O)O)c(O)c23)nc(SCCCS(=O)(=O)O)n1 [Compound 122]	543 nm	
O=C(O)CCNc1ccc2cc(S(=O)(=O)O)cc(O)c2c1N=Nc1ccc(Nc2nc(SCCCS(=O)(=O)O)nc(SCCCS(=O)(=O)O)n2)cc1S(=O)(=O)O [Compound 119]	535 nm	
O=S(=O)(O)CCCSc1nc(Nc2ccc(N=Nc3c(S(=O)(=O)O)cc4cccc(NS(=O)(=O)c5ccc(Br)cc5)c4c3O)c(S(=O)(=O)O)c2)nc(SCCCS(=O)(=O)O)n1 [Compound 111]	526 nm	
Nc1ccc2cc(S(=O)(=O)O)cc(O)c2c1N=Nc1ccc(Nc2nc(SCCCS(=O)(=O)O)nc(SCCCS(=O)(=O)O)n2)cc1S(=O)(=O)O [Compound 118]	518 nm	43 g per 100 ml
COc1cc(N=Nc2cccc(S(=O)(=O)O)c2)c(C)cc1Nc1nc(SCCCCS(=O)(=O)O)nc(SCCCCS(=O)(=O)O)n1 [Compound 104]	383 nm	
Cc1cc(N=Nc2c(Nc3c(C)cccc3C)ccc3cc(S(=O)(=O)O)cc(O)c23)c(S(=O)(=O)O)cc1Nc1nc(SCCCS(=O)(=O)O)nc(SCCCS(=O)(=O)O)n1 [Compound 120]	529 nm	
COc1cc(N=Nc2cc(S(=O)(=O)O)c3cccc(S(=O)(=O)O)c3c2)c(C)cc1Nc1nc(SCCCS(=O)(=O)O)nc(SCCCS(=O)(=O)O)n1 [Compound 100]	401 nm	34 g per 100 ml
COc1ccc(N=Nc2c(S(=O)(=O)O)cc3cc(S(=O)(=O)O)cc(Nc4nc(SCCCS(=O)(=O)O)nc(SCCCS(=O)(=O)O)n4)c3c2O)cc1S(=O)(=O)O [Compound 116]	555 nm	
COc1cc(S(=O)(=O)O)c(N=Nc2c(NCCC#N)ccc3cc(S(=O)(=O)O)cc(O)c23)cc1Nc1nc(SCCCS(=O)(=O)O)nc(SCCCS(=O)(=O)O)n1 [Compound 121]	542 nm	
CCCCCCNc1nc(NCCCCCC)nc(Nc2cc(S(=O)(=O)O)cc3cc(S(=O)(=O)O)c(N=Nc4ccccc4S(=O)(=O)O)c(O)c23)n1 [dye 5, reference compound]		17 g per 100 ml
Cc1ccc(S(=O)(=O)Nc2cc(S(=O)(=O)O)cc3cc(S(=O)(=O)O)c(N=Nc4cc(Nc5nc(SCCCS(=O)(=O)O)nc(SCCCS(=O)(=O)O)n5)ccc4S(=O)(=O)O)c(O)c23)cc1 [Compound 113]	527 nm	
Cc1cc(Nc2nc(SCCCS(=O)(=O)O)nc(SCCCS(=O)(=O)O)n2)ccc1N=Nc1cc(S(=O)(=O)O)c2cccc(S(=O)(=O)O)c2c1 [Compound 103]	383 nm	30 g per 100 ml
Cc1ccc(N=Nc2c(S(=O)(=O)O)cc3cc(S(=O)(=O)O)cc(Nc4nc(SCCCS(=O)(=O)O)nc(SCCCS(=O)(=O)O)n4)c3c2O)c(S(=O)(=O)O)c1 [Compound 115]	543 nm	
CCCCCC(=O)Nc1cc(S(=O)(=O)O)cc2cc(S(=O)(=O)O)c(N=Nc3cc(Nc4nc(SCCCS(=O)(=O)O)nc(SCCCS(=O)(=O)O)n4)c(OC)cc3S(=O)(=O)O)c(O)c12 [Compound 109]	530 nm	
CC(=O)Nc1cc(Nc2nc(SCCCS(=O)(=O)O)nc(SCCCS(=O)(=O)O)n2)ccc1N=Nc1cc(S(=O)(=O)O)c2cccc(S(=O)(=O)O)c2c1 [Compound 102]	394 nm	
COc1cc(N=Nc2c(N)ccc3cc(S(=O)(=O)O)cc(O)c23)c(C)cc1Nc1nc(NCCO)nc(Nc2cccc(S(=O)(=O)O)c2)n1 [dye 1, reference compound]		11 g per 100 ml
O=C(Nc1cc(S(=O)(=O)O)cc2cc(S(=O)(=O)O)c(N=Nc3cc(Nc4nc(SCCCS(=O)(=O)O)nc(SCCCS(=O)(=O)O)n4)ccc3S(=O)(=O)O)c(O)c12)c1ccccc1 [Compound 112]	512 nm	44 g per 100 ml

Source: patent US5844100A, “Ink compositions containing azo dyes for ink jet printing” (Ilford Imaging Switzerland GmbH, priority 1995, dated 1998)
